Consider 12 compounds from ChEMBL document CHEMBL1201862, “PubChem BioAssay data set” (2004).

Among the test systems are SF-295; SNB-19; RPMI-8226; HL-60; A498; NCI-H226; OVCAR-4; TK-10; PC-3; MOLT-4; EKVX; HCT-15; COLO 205; MDA-MB-435; OVCAR-8; HCC 2998; MCF7; SN12C; OVCAR-3; BT-549.
Common to all, as to assay: inhibition of tumour cell growth, NCI panel, 48 h

SMILES strings stand for the structures.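 Interpolation was linear, between the two tested concentrations surrounding the appropriate level; five concentrations were tested over 48 hours in 96-well plates. Abbreviation: GI50, concentration required for 50% inhibition of growth.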 Active and inactive are the calls of the source. Rule as the data show it: active = GI50 up to about 1.1 µM and inactive = higher.

For the compound `O=C1[C@@H](O)[C@@H]2CCCC[C@@]23CCCN13`, the GI50 in the assay on SF-295, with SNB-19, in the assay on RPMI-8226, in the assay on HL-60, in the assay with A498 and in the assay on NCI-H226 was > 100 µM (inactive) each time. Besides, the GI50 is > 100 µM (inactive) in the assay with OVCAR-4; > 100 µM (inactive) in the assay with TK-10; > 100 µM (inactive) in the assay with PC-3; > 100 µM (inactive) with MOLT-4; > 100 µM (inactive) in the assay on EKVX; greater than 100 µM in the assay with HCT-15. Moreover, the GI50 in the assay with COLO 205, in the assay with MDA-MB-435, with OVCAR-8, in the assay on HCC 2998, with MCF7 and in the assay with SN12C was > 100 µM (inactive) each time.

Regarding `CCCCc1ccc(-n2c(C)c(COC(=O)NC)c(COC(=O)NC)c2C)cc1`, the GI50 was 8.61 µM (inactive) with SF-295; 13.9 µM (inactive) with SNB-19; 4.47 µM (inactive) in the assay on RPMI-8226; 3.56 µM (inactive) in the assay on HL-60; 1.1 µM (active) in the assay with A498; 1.05 µM (active) in the assay on NCI-H226. For the same compound, the GI50 in the assay on TK-10 was 2.28 µM (inactive); in the assay with PC-3, 10.9 µM (inactive); with EKVX it was 13 µM (inactive); with HCT-15, 6.18 µM; with COLO 205 it was 7.21 µM (inactive); in the assay with MDA-MB-435, 12.5 µM (inactive). Further, the GI50 in the assay on OVCAR-8 is 4.16 µM (inactive); in the assay with OVCAR-3, 12.1 µM (inactive); with HCC 2998, 12.7 µM (inactive); in the assay on MCF7, 4.76 µM (inactive); in the assay on SN12C, 3.54 µM (inactive).

For the compound `Nc1ncnc2c1nnn2C1CCC(CP(=O)(O)O)C1` (centres undefined), the GI50 with SF-295, in the assay with SNB-19, with RPMI-8226, in the assay with HL-60, in the assay on NCI-H226 and in the assay on OVCAR-4 was > 100 µM (inactive) each time. The GI50 in the assay on TK-10 was > 100 µM (inactive); in the assay on PC-3, > 100 µM (inactive); in the assay with MOLT-4 it was > 100 µM (inactive); with EKVX it was > 100 µM (inactive); in the assay on HCT-15, greater than 100 µM; in the assay with COLO 205, > 100 µM (inactive). Moreover, the GI50 with MDA-MB-435, in the assay on OVCAR-8, in the assay with OVCAR-3, with HCC 2998, in the assay on MCF7 and in the assay with SN12C was > 100 µM (inactive) each time.

For the compound `N#CC(C(=O)c1cccnc1Cl)c1nc2cc(C(F)(F)F)ccc2s1` (centres undefined), the GI50 was 27.7 µM (inactive) in the assay on SF-295; 77.3 µM (inactive) in the assay on SNB-19; 41.6 µM (inactive) in the assay on RPMI-8226; 26.7 µM (inactive) with A498; 44.2 µM (inactive) in the assay on NCI-H226; 67 µM (inactive) in the assay with OVCAR-4. In addition, the GI50 with TK-10 was 55.5 µM (inactive); in the assay on MOLT-4 it was > 100 µM (inactive); in the assay with EKVX it was 64.9 µM (inactive); in the assay with HCT-15, 35.3 µM; in the assay on COLO 205, 44.2 µM (inactive); in the assay with MDA-MB-435 it was 47.2 µM (inactive). The GI50 in the assay with OVCAR-8 is > 100 µM (inactive); in the assay on OVCAR-3 it was > 100 µM (inactive); in the assay on BT-549, 37.4 µM (inactive); in the assay on SN12C, 27.7 µM (inactive).

Turning to `CC(CCC#N)(CCC#N)C(=O)CC(O)(C(F)(F)F)C(F)(F)F`, the GI50 in the assay with SF-295 was 18.2 µM (inactive); in the assay with SNB-19, 23.7 µM (inactive); in the assay with RPMI-8226 it was 2.64 µM (inactive); in the assay with HL-60 it was 0.817 µM (active); in the assay on A498, 20.6 µM (inactive); in the assay on NCI-H226, 19.8 µM (inactive). Besides, the GI50 in the assay with OVCAR-4 was 5.02 µM (inactive); in the assay with TK-10, 7.71 µM (inactive); with PC-3, 11.9 µM (inactive); in the assay on MOLT-4, 0.547 µM (active); with EKVX, 20.7 µM (inactive); with HCT-15, 2.28 µM. The GI50 in the assay on COLO 205 is 2.28 µM (inactive); in the assay with MDA-MB-435 it was 5.6 µM (inactive); with OVCAR-8, 3.3 µM (inactive); with OVCAR-3, 2.76 µM (inactive); in the assay with HCC 2998, 17 µM (inactive); in the assay with MCF7, 6.5 µM (inactive). In addition, the GI50 in the assay with SN12C is 7.24 µM (inactive).

For `C=C(C)[C@@H]1CCC2=C[C@@H](OC2=O)[C@@H](C(=C)C)C2=CC(C(=O)O)=C(C1)O2`, the GI50 was > 100 µM (inactive) in the assay on SF-295; > 100 µM (inactive) in the assay on SNB-19; 40.6 µM (inactive) in the assay on RPMI-8226; 78 µM (inactive) in the assay on HL-60; > 100 µM (inactive) in the assay on A498; > 100 µM (inactive) in the assay with NCI-H226. The GI50 in the assay on OVCAR-4 was > 100 µM (inactive); in the assay on TK-10, > 100 µM (inactive); with MOLT-4 it was 46.3 µM (inactive); in the assay with EKVX it was > 100 µM (inactive); in the assay on HCT-15 it was greater than 100 µM; in the assay on COLO 205 it was > 100 µM (inactive). The GI50 in the assay on MDA-MB-435 is > 100 µM (inactive); in the assay with OVCAR-8, > 100 µM (inactive); with OVCAR-3, 34.1 µM (inactive); in the assay on BT-549, > 100 µM (inactive); with HCC 2998, > 100 µM (inactive); in the assay with MCF7, 68.1 µM (inactive). Besides, in the assay on SN12C, the GI50 was > 100 µM (inactive).

As to `CCOP(=O)(OCC)/C(=C\N1C(=O)CC(=O)NC1=S)C(=O)OC`, the GI50 with SF-295, in the assay with SNB-19, in the assay with HL-60, in the assay with A498, in the assay on NCI-H226 and in the assay on OVCAR-4 was > 100 µM (inactive) throughout. The GI50 is > 100 µM (inactive) with TK-10; > 100 µM (inactive) with MOLT-4; > 100 µM (inactive) in the assay on EKVX; greater than 100 µM with HCT-15; > 100 µM (inactive) in the assay on COLO 205; > 100 µM (inactive) with MDA-MB-435. Besides, the GI50 in the assay on OVCAR-8, in the assay with OVCAR-3, with BT-549, in the assay on HCC 2998, in the assay with MCF7 and in the assay with SN12C was > 100 µM (inactive) each time.

For `CCOC(=O)C(=CNc1ccc(F)c(F)c1)C(=O)OCC`, the GI50 is > 100 µM (inactive) with SNB-19; 64.1 µM (inactive) in the assay with RPMI-8226; 66.1 µM (inactive) in the assay with HL-60; > 100 µM (inactive) in the assay with A498; > 100 µM (inactive) in the assay with NCI-H226; 95.3 µM (inactive) with OVCAR-4. The GI50 with TK-10 is > 100 µM (inactive); in the assay with PC-3, 67.6 µM (inactive); with MOLT-4, 46 µM (inactive); with EKVX it was 81.5 µM (inactive); in the assay with HCT-15 it was 88.3 µM; in the assay with COLO 205, > 100 µM (inactive). Moreover, the GI50 with MDA-MB-435, with OVCAR-8, with OVCAR-3, in the assay on HCC 2998, in the assay with MCF7 and in the assay on SN12C was > 100 µM (inactive) each time.

Take `Cc1ccc(S(=O)(=O)N2CC3OC(C)(C)OC3C2CO)cc1` (centres undefined): the GI50 with SF-295, in the assay with RPMI-8226, in the assay with A498, with NCI-H226, with OVCAR-4 and in the assay on TK-10 was > 100 µM (inactive) throughout. Besides, the GI50 in the assay with PC-3 was > 100 µM (inactive); in the assay on MOLT-4, > 100 µM (inactive); with HCT-15 it was greater than 100 µM; with COLO 205 it was > 100 µM (inactive); in the assay with MDA-MB-435, > 100 µM (inactive); with OVCAR-8, > 100 µM (inactive). The GI50 in the assay with OVCAR-3, in the assay on HCC 2998, in the assay on MCF7 and in the assay with SN12C was > 100 µM (inactive) throughout.

In the case of `COc1ccc(NC(=O)c2cc(NC(=O)/C=C/c3ccccc3)c(OC)c(OC)c2)cc1`, the GI50 with SF-295 was 17.4 µM (inactive); in the assay with SNB-19, 61.1 µM (inactive); in the assay on RPMI-8226 it was 3.83 µM (inactive); in the assay on HL-60 it was 6.19 µM (inactive); with A498, 53.6 µM (inactive); with NCI-H226, 6.64 µM (inactive). For the same compound, the GI50 in the assay on OVCAR-4 was 53 µM (inactive); with TK-10, > 100 µM (inactive); with PC-3 it was 6.41 µM (inactive); in the assay with MOLT-4 it was 6 µM (inactive); in the assay on EKVX it was 54.2 µM (inactive); in the assay on HCT-15, 3.99 µM. Also, the GI50 with COLO 205 was 22.5 µM (inactive); in the assay with MDA-MB-435, 3.07 µM (inactive); with OVCAR-3, 60.1 µM (inactive); in the assay on MCF7 it was 3.69 µM (inactive); in the assay with SN12C it was 6.3 µM (inactive).

`CC1=NCC[N+]1(CCc1ccccc1)Cc1ccccc1` (centres undefined): the GI50 is > 100 µM (inactive) in the assay on SF-295; 71.9 µM (inactive) with SNB-19; 13.7 µM (inactive) in the assay on RPMI-8226; 16.6 µM (inactive) in the assay on HL-60; 60.3 µM (inactive) with A498; 65 µM (inactive) with NCI-H226. The GI50 with OVCAR-4 was 37.2 µM (inactive); with TK-10, 48.1 µM (inactive); in the assay on EKVX, > 100 µM (inactive); in the assay with HCT-15, greater than 100 µM; in the assay on COLO 205, 5.93 µM (inactive); with OVCAR-8, 37.3 µM (inactive). Moreover, the GI50 with OVCAR-3 was 5.71 µM (inactive); in the assay with BT-549, 33.6 µM (inactive); in the assay with HCC 2998, 35.7 µM (inactive); in the assay with MCF7, 47.9 µM (inactive); with SN12C, 45.5 µM (inactive).

`Nc1ccc(S(=O)(=O)Nc2nnc(S(N)(=O)=O)s2)cc1`: the GI50 with SF-295 is > 100 µM (inactive); in the assay with SNB-19 it was > 100 µM (inactive); in the assay on RPMI-8226, > 100 µM (inactive); in the assay with HL-60, > 100 µM (inactive); in the assay with A498, > 100 µM (inactive); with NCI-H226, 45.4 µM (inactive). The GI50 is > 100 µM (inactive) in the assay with OVCAR-4; > 100 µM (inactive) in the assay with TK-10; > 100 µM (inactive) in the assay with MOLT-4; > 100 µM (inactive) in the assay with EKVX; greater than 100 µM with HCT-15; > 100 µM (inactive) in the assay on COLO 205. Besides, the GI50 in the assay on MDA-MB-435, in the assay on BT-549, in the assay with HCC 2998 and with MCF7 was > 100 µM (inactive) each time.
